pEC50: −log10 of the molar value. Calls of active or inactive are those of the source.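 Rule for the calls: active = fitted half-maximal concentration below 30 µM for cell fluorescence in pump-free yeast, so likely self-fluorescent; inactive = the rest.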
Key:
[1] = test system: S. cerevisiae AD/pABC3 compound autofluorescence, flow cytometry; test: concentration-dependent intrinsic compound fluorescence, S. cerevisiae AD/pABC3, flow cytometry, Cherry Pick1 hits, artefact control for antifungal efflux pump inhibitor project, dose response (AID 588620);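 note: red emission of unstained cells excited at 488 nm measured in PE-Texas Red channel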;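 for fluorescence response, % of control: cell median fluorescence as percent of DMSO wells so 100% equals vehicle baseline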
[2] = as above; conditions: S. cerevisiae AD/pABC3 compound autofluorescence, flow cytometry; at 33.1 µM (top of the series)

Structure (SMILES)	pEC50 [1]	fluorescence response, % of control [2]
Cc1ccc(/C=C2\CCC3=C2OC(N)=C(C#N)C3c2ccc(C)cc2)cc1 (stereo unspecified)	5.04	
COc1ccccc1-c1nc(C(N)=O)c2[nH]c(=O)n(-c3cccc(C)c3)c2n1	4.96	
Cc1nn(Cc2cccc(C(=O)NC34CC5CC(CC(C5)C3)C4)c2)c(C)c1Br	5.35	
COc1cc2sc(-c3ccccc3OC)c(-c3ccc(OCCN4CCOCC4)cc3)c2cc1OC	4.76	
CCOc1ccc(NC(=O)CSc2nnc(Cc3cccn3C)n2-c2ccc(F)cc2)cc1	4.87	
COc1ccc(OC)c2c1C(=O)C(Cl)=C(Cl)C2=O	6.31	
Cc1ccc2nc(/C(C#N)=C/c3ccc(O)c(O)c3)[nH]c2c1	5.27	
C[C@@]12C(=O)Nc3cc(F)c(F)cc3C(=O)N1[C@H]1c3cc(Cl)ccc3OC[C@@H]1[C@@H]2c1ccccc1	4.91	
O=C1/C(=C/c2ccco2)Oc2c1ccc(O)c2CN1CCCCC1	5.22	
C=CCn1c(=O)[nH]c2nc3cc(N=CN(C)C)c(C)cc3nc2c1=O	5.29	
O=C(Cc1cccs1)N1CCN=C1SCc1ccccc1Cl		121% (inactive)
COc1ccc(-c2nc3ccccc3c(=O)n2CCOc2ccc(C)cc2C)cc1		113% (inactive)
COc1cccc(CN(CC(=O)NCC2CCCO2)C(=O)CCC(=O)Nc2cc(C)on2)c1 (stereo unspecified)		103% (inactive)
COC(=O)c1ccc(CSc2nnc3c(n2)[nH]c2ccccc23)cc1		139% (inactive)
Cc1noc(C)c1COc1ccccc1C(=O)N1CCN(c2cccc(C(F)(F)F)c2)CC1		88.1% (inactive)
Cc1ccc2c(c1)[C@H]1[C@H](CO2)[C@H](c2ccccc2)[C@]2(C)C(=O)Nc3cc(F)c(F)cc3C(=O)N12		90.5% (inactive)
O=C(COC(=O)c1ccc(S(=O)(=O)N2CCCCC2)cc1)NCc1ccco1		91.7% (inactive)
C[C@H](CO)N1C[C@H](C)[C@@H](CN(C)S(=O)(=O)c2ccccc2)Oc2c(NC(=O)Nc3ccccc3)cccc2C1=O		83.7% (inactive)
O=C(COC(=O)c1c(Cl)cccc1Cl)NCC1CCCO1 (stereo unspecified)		106% (inactive)
CCOC(=O)CC(=O)c1cc(OC)c(OC)c(OC)c1		96.1% (inactive)
CCOC(=O)c1sc2nc3c(SCC(=O)O)cc(C(=O)c4ccccc4O)cn3c(=O)c2c1C		132% (inactive)
CCCOc1ccc(/C=c2\sc3nc(-c4ccco4)nn3c2=O)cc1OCC		95.1% (inactive)

Structure (SMILES)	pEC50 [1]	fluorescence response, % of control [2]
COc1ncccc1C(=O)NC1CCCc2c1cnn2-c1cc(C)cc(C)c1 (stereo unspecified)		76.4% (inactive)
O=C(NC(=S)Nc1ccc2[nH]c(=O)[nH]c2c1)c1cncc(Br)c1		102% (inactive)
O=C(/C=C/c1ccccc1Cl)NCCc1ccccc1		89.7% (inactive)
O=C(O)CCN1C(=O)/C(=C/c2ccc(-c3nc4ccccc4s3)o2)SC1=S		234% (inactive)
c1ccc(-c2ccc3c(c2)c2c4n3CCN=C4CCC2)cc1		138% (inactive)
COC(=O)c1ccc(S(=O)(=O)NCc2ccc(OC)cc2)n1C		96.9% (inactive)
COc1ccc(-c2nc3ccccc3c(=O)n2CCOc2cc(C)ccc2C)cc1		135% (inactive)
CC(C)C(O)(C#CCN1CCCCC1)C(C)C		111% (inactive)
C[C@@H]1CN(C(=O)c2cc(COc3cccc(C(F)(F)F)c3)on2)C[C@H](C)O1		97.1% (inactive)
Cc1ccc(-c2c3c([nH]c(=S)c2C#N)CCCC3)o1		162% (inactive)
Cc1ccc(C(=O)N2CCC3(CC2)Oc2ccc(Cl)cc2C(=O)C32CC(c3ccc(Cl)cc3)=NO2)s1 (stereo unspecified)		94.5% (inactive)
CCCCCCCCCC[N+](C)(C)CC/C=C1/c2ccccc2Sc2ccc(Cl)cc21		105% (inactive)
COc1cc(OC)cc(-c2sc3ccc(OC)cc3c2-c2ccc(OCCN3CCCCC3)cc2)c1		122% (inactive)
O=C(O)CCCN1C(=O)/C(=C\c2ccc(-c3nc4ccccc4s3)o2)SC1=S		288% (inactive)
CCOC(=O)c1cnc(SC)nc1Oc1cccc(NC(=O)c2ccc(Cl)cc2)c1		90.9% (inactive)
COc1ccc2cc(CN(CC3CCCO3)S(=O)(=O)c3ccc(C(C)=O)cc3)c(=O)[nH]c2c1 (stereo unspecified)		78.2% (inactive)
COc1ccc(C(=O)NC2CCCc3c2cnn3-c2ccccc2F)o1 (stereo unspecified)		86.3% (inactive)
COc1ccc2sc(-c3ccccc3OC)c(-c3ccc(OCCN(C)C)cc3)c2c1		118% (inactive)
CCN1CCN(c2cc(SC(C)C)nc(-c3ccc(OC)cc3)n2)CC1		109% (inactive)
O=C(NNc1cc(N2CCCC2)nc(N2CCCC2)n1)c1ccc([N+](=O)[O-])cc1		95.7% (inactive)
Cc1c(CCOC(=O)CC23CC4CC(CC(C)(C4)C2)C3)sc[n+]1Cc1ccc([N+](=O)[O-])cc1		83.6% (inactive)
COc1ccc(CN2C(=O)C(C)Nc3ncnc(N4CCN(c5ccccc5)CC4)c32)cc1 (stereo unspecified)		106% (inactive)

Structure (SMILES)	pEC50 [1]	fluorescence response, % of control [2]
Cc1cc(C(=O)NC2CC(C)(C)Cc3c2cnn3-c2ccc(F)cc2)no1 (stereo unspecified)		98.7% (inactive)
N#CC(C(=O)NCc1ccccc1)c1nc2ccccc2nc1N1CCCC1 (stereo unspecified)		102% (inactive)
Cc1ccc(-c2cc(C(=O)Nc3ccc(S(=O)(=O)Nc4onc(C)c4C)cc3)c3ccccc3n2)cc1		88.3% (inactive)
COc1cccc(C2CC(c3ccccc3)=NN2S(=O)(=O)c2ccc(C)cc2)c1OC (stereo unspecified)		108% (inactive)
Cc1ccc(/C=c2\sc3nc(-c4cccs4)nn3c2=O)o1		118% (inactive)
CC(C)c1ccc(/C=c2\sc3nc(-c4ccncc4)nn3c2=O)cc1		82.5% (inactive)
O=C(Cc1c2ccccc2nc2ccccc12)c1ccccc1		98.7% (inactive)
C[C@H]1CN([C@@H](C)CO)C(=O)c2cc(NC(=O)Nc3cccc4ccccc34)ccc2O[C@@H]1CN(C)Cc1ccc(-c2ccccc2)cc1		102% (inactive)
Cc1nc2ccccc2n1CCc1nc2c3ccccc3nc(SCC(=O)NCc3ccco3)n2n1	4.91	
O=C(Nc1ccc(O)cc1C(=O)O)c1ccc(NC(=O)c2ccco2)cc1		92.4% (inactive)
O=[N+]([O-])c1ccc(N2N=C(c3ccco3)CC2c2ccccc2)cc1 (stereo unspecified)	4.74	
COc1cc(OC)cc(-c2sc3ccc(OC)cc3c2-c2ccc(OCCN3CCOCC3)cc2)c1		111% (inactive)
CCCCn1c(=N)n(CC(O)COc2ccc(C)cc2)c2ccccc21 (stereo unspecified)		106% (inactive)
O=c1[nH]c(C2CCN(S(=O)(=O)c3ccc4c(c3)OCCO4)CC2)nc2c1nnn2Cc1ccccc1F		82.5% (inactive)
Cc1c(NC(=O)c2ncn[nH]2)cccc1-c1nc2ccccc2s1		109% (inactive)
COc1ccc(CCOC(=O)c2ccc(N)c([N+](=O)[O-])c2)cc1		110% (inactive)
CCn1ncc(Br)c1C(=O)Nc1cc(C)cc(C)c1		129% (inactive)
CCOC(=O)c1ccc(-c2cc(C)no2)[nH]1		99.8% (inactive)
O=C(O)CCN1C(=O)/C(=C\c2ccc(-c3nc4ccccc4s3)o2)SC1=S		102% (inactive)
CCCCSC1=N/C(=C/c2ccsc2)C(=O)N1c1ccccc1		95.7% (inactive)
CC1Cc2cc(S(=O)(=O)NCc3ccccc3)ccc2N1C(=O)C1CCC1 (stereo unspecified)		89% (inactive)
COc1cccc(-c2sc3ccc(OC)cc3c2-c2ccc(OCCN3CCOCC3)cc2)c1		92.4% (inactive)

Source: PubChem BioAssay AID588620 (NMMLSC, 2011)
